The source made the active and inactive calls.
What was measured:
[1] = target: Protein Wnt-3a (Mus musculus, UniProt P27467); assay: antagonism of Wnt3a pathway luciferase reporter – Wnt-LIGHT cells, luminescence, selectivity assay for Gli-SUFU antagonist project, dose response (AID 651570); type: functional; conditions: read-out: IC50_Mean;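 also: Wnt-LIGHT reporter cells stimulated with conditioned medium from Wnt3a-producing cells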
[2] = blockade of melanocortin 4 receptor signaling – cell-based, plate reader, cherry pick, counter-screen for LGR2 antagonist project, dose response (AID 743444); type: functional;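 also: transfected HEK 293 cells stimulated with alpha-MSH peptide; potency of inhibitors of the alpha-MSH evoked signal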
[3] = blockers of bursicon-stimulated LGR2 cAMP reporter – cell-based, HEK293, CRE-luciferase reporter, cherry pick, set 2, dose response (AID 743343); type: functional;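 also: transfected cells were stimulated with diluted bursicon conditioned medium after compound addition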
[4] = A549 cell cytotoxicity, dose response, cytotoxicity control, plate reader, cherry-pick, antagonist series (AID 743412); type: functional, cell-based
[5] = target: Estrogen receptor beta (Homo sapiens, UniProt Q92731);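 also: recombinant ER-beta bound to coactivator SRC1 peptide in presence of estradiol agonist; inhibitors block coactivator peptide binding and lower the FRET signal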
Chain of Estrogen receptor beta (Q92731 whole entry): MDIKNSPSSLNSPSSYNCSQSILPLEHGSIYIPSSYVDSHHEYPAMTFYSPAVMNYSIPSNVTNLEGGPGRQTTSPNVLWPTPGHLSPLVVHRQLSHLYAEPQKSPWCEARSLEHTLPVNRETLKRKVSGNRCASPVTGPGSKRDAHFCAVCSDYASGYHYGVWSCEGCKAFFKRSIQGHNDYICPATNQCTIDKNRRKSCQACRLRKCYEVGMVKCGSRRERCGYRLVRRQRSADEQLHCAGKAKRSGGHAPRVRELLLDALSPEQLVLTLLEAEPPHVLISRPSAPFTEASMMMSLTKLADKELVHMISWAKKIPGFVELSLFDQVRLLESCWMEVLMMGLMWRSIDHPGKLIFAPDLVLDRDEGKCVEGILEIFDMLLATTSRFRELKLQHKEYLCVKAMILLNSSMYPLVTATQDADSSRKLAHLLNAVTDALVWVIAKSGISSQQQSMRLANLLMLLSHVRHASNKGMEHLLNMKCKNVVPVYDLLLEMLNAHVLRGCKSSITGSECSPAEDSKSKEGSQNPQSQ

[6] = target: T1, Sentrin-specific protease 7 (Homo sapiens, UniProt Q9BQF6); type: functional;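 also: Luminescence-based dose-response confirmation of ultra-high-throughput screening hits, measuring inhibition of SENP7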
T1 sequence (Q9BQF6 whole entry): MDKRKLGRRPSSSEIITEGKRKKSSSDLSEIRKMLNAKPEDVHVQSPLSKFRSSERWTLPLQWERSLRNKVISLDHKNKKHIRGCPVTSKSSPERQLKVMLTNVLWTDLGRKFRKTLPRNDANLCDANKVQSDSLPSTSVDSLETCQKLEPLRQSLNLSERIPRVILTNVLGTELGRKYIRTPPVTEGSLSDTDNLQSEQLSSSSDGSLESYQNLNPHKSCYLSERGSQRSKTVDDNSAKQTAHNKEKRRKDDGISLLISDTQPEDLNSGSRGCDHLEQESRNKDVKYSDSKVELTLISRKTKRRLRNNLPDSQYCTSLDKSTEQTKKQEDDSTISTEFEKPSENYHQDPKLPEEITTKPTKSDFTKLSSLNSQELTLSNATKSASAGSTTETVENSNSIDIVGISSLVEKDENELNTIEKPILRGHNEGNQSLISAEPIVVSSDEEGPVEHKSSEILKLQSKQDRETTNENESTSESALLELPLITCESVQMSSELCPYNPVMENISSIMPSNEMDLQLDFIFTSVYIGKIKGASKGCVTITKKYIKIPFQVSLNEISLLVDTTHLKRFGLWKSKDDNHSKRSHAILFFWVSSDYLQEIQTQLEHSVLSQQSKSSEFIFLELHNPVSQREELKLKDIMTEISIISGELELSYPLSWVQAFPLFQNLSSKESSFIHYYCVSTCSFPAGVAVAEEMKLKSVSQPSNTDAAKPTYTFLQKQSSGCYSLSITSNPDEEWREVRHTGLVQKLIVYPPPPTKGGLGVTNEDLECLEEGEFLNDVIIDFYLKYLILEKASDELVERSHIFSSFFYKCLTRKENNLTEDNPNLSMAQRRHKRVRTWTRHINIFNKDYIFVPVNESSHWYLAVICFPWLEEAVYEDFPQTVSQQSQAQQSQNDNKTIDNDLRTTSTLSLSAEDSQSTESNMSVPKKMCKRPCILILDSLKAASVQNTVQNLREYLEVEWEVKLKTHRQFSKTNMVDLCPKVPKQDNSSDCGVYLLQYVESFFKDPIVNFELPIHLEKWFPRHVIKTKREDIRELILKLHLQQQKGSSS

[7] = target: T2, Caspase-3 (Homo sapiens, UniProt P42574); type: functional;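 also: Dose-response selectivity test against caspase-3 for candidate inhibitors of sentrin-specific proteases (SENPs)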
T2 sequence (P42574 whole entry): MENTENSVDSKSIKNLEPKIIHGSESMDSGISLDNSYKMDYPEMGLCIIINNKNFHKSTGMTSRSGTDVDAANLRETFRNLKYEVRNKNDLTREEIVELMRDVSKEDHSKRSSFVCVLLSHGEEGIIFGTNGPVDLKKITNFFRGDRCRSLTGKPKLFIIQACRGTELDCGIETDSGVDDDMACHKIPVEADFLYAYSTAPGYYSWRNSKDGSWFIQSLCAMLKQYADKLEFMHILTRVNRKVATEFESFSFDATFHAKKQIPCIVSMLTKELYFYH

[8] = target: T3, Coagulation factor XII (Homo sapiens, UniProt P00748); type: functional;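 also: activated factor XIIa alpha cleaving a fluorogenic AMC peptide substrate; inhibitor potency from loss of enzyme activity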
T3 sequence (P00748 whole entry): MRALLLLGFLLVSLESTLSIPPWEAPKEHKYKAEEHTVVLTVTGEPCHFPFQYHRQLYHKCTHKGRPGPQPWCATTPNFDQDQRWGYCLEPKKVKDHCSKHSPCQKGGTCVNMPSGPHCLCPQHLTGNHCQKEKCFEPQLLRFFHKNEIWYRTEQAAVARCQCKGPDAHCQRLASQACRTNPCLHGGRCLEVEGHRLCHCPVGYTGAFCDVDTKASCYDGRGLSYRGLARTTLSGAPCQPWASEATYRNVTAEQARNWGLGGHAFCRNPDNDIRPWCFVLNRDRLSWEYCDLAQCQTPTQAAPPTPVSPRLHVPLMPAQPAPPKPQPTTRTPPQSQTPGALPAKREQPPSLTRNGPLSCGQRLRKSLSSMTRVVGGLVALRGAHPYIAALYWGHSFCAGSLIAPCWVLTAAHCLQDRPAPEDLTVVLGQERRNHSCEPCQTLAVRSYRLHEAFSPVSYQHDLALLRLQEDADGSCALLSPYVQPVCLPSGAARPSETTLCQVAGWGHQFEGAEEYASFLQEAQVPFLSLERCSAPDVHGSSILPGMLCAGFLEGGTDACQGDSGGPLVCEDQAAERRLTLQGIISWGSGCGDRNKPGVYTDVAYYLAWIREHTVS

[9] = target: T4, Sentrin-specific protease 6 (Homo sapiens, UniProt Q9GZR1); type: functional;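 also: Luminescence-based dose-response confirmatory assay of SENP6 inhibition, following up an ultra-high-throughput screen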
T4 sequence (Q9GZR1 whole entry): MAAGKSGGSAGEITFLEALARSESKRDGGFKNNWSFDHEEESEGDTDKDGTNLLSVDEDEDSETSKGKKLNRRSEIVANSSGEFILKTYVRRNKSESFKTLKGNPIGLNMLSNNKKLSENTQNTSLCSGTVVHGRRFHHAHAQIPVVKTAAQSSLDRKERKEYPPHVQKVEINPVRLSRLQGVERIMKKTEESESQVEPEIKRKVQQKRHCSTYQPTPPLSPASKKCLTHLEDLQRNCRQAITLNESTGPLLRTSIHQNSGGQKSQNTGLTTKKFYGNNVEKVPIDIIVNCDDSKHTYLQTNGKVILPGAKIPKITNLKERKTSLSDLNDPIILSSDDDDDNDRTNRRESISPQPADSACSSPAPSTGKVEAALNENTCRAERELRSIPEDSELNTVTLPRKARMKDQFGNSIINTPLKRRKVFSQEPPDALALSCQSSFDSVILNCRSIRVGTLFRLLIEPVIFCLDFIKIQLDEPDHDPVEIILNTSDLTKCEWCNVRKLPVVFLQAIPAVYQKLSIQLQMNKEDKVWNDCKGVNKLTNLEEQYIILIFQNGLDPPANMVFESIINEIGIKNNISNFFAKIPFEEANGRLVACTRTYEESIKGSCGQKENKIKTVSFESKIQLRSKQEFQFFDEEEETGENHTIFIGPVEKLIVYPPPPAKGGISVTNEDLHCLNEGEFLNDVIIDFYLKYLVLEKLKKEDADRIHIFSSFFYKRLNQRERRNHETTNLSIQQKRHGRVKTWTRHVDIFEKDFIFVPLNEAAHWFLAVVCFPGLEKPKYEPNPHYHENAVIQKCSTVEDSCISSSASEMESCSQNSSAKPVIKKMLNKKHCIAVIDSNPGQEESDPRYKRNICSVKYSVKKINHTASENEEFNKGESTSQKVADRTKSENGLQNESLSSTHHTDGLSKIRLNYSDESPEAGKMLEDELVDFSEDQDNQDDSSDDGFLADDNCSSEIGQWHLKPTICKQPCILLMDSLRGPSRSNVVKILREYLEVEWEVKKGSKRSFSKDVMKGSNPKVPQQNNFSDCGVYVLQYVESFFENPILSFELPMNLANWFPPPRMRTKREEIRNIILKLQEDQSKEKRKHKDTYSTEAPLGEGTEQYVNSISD

[10] = target: T5, Sentrin-specific protease 8 (Homo sapiens, UniProt Q96LD8); type: functional;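 also: luminescence read-out of SENP8 inhibition, dose-response confirmation following an ultra-high-throughput screen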
T5 sequence (Q96LD8 whole entry): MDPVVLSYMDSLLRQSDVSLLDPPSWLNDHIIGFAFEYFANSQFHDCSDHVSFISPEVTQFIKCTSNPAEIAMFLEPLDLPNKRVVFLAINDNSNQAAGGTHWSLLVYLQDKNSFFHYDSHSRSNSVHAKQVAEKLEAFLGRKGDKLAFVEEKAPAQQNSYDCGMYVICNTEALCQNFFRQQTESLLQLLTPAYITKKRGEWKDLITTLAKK

[11] = target: T6, Aminopeptidase N (Plasmodium falciparum FcB1/Columbia, UniProt O96935); assay: malaria alanyl aminopeptidase activity blockers – biochemical, fluorogenic H-Leu-NHMec substrate, 1536-well (AID 1445); design: species or system Plasmodium falciparum 3D7, 3D7
T6 sequence (O96935 whole entry): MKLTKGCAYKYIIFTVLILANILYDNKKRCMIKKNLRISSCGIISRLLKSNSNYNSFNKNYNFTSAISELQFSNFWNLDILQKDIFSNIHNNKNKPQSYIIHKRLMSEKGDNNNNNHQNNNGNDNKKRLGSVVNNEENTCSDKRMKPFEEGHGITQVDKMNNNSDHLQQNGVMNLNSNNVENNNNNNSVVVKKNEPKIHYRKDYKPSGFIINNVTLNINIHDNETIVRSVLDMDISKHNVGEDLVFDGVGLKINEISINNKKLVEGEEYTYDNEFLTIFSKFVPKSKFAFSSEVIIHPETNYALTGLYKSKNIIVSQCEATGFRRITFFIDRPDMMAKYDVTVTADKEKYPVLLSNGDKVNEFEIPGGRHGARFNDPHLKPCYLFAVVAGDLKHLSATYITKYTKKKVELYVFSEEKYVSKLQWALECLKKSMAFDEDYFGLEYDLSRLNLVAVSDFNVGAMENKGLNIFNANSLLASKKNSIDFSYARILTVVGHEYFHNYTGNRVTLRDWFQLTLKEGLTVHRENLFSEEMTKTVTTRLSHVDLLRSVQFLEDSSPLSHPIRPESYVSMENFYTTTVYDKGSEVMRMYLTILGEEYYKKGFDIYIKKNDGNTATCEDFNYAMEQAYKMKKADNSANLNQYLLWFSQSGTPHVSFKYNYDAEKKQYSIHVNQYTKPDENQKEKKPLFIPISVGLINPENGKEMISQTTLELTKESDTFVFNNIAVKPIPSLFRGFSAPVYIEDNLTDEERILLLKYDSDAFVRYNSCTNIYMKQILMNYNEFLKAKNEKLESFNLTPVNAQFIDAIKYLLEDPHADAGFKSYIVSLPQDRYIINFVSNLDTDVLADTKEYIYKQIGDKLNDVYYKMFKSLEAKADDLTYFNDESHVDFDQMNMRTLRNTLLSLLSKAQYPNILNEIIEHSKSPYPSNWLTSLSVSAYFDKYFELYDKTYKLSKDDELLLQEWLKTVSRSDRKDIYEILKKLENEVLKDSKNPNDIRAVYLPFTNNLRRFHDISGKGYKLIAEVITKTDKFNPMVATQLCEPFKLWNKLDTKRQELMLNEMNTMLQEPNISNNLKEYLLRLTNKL

[12] = target: 5-hydroxytryptamine receptor 2A (Mus musculus, UniProt P35363); type: functional, cell-based;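 also: CHO-K1 cells with tagged receptor and beta-arrestin; agonist potency measured as compound-induced activation of the receptor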
Chain of 5-hydroxytryptamine receptor 2A (P35363 whole entry): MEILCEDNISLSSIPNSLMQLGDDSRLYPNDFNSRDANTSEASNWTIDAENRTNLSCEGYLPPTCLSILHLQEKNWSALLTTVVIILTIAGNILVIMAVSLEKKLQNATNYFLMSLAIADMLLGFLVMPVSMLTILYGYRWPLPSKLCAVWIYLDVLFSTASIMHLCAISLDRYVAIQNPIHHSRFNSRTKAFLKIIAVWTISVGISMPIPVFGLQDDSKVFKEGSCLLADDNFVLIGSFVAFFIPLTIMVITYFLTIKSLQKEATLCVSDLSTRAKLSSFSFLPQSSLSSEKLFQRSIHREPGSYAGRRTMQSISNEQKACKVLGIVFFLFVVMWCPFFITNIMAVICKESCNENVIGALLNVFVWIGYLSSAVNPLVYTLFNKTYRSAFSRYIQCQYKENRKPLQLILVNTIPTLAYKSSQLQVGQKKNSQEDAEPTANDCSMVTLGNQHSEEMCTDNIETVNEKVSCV

[13] = target: Mu-type opioid receptor (Homo sapiens, UniProt P35372); type: functional, cell-based;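 also: U2OS cells with beta-arrestin recruitment to OPRM1 by beta-gal complementation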
Chain of Mu-type opioid receptor (P35372 whole entry): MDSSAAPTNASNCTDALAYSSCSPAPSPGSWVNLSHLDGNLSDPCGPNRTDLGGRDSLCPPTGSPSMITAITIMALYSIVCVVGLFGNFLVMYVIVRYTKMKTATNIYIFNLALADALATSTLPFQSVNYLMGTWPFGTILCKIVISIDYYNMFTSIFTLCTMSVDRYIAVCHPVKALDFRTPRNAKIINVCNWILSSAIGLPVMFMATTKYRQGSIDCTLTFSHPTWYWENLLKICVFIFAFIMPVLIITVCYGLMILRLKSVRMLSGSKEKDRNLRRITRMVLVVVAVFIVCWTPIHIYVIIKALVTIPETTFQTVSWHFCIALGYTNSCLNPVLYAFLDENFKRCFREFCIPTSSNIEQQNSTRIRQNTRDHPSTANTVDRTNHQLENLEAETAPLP

[14] = viability loss in THP-1 monocytes – THP-1 cells, cytotoxicity control for Vif-APOBEC3G degradation inhibitor project, dose response (AID 1117359); type: functional; conditions: THP-1

Chain of Protein Wnt-3a (P27467 whole entry): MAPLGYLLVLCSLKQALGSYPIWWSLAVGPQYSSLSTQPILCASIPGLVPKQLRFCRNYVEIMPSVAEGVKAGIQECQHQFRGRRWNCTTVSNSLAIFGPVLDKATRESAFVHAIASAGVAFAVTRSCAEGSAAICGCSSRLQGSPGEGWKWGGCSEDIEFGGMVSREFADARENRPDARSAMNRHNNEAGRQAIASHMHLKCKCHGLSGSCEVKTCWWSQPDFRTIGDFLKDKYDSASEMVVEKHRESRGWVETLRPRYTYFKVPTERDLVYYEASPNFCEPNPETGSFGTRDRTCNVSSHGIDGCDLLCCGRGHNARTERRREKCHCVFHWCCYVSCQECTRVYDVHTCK

## CC(C)(C)c1ccc(-n2ncc3c2CCCC3NC(=O)CCN2CCCC2=O)cc1 (configuration not stated)
[1]
  IC50: 0.973 µM (active)

## COc1ccc2c(c1)c(C)cc[n+]2Cc1ccccc1
[1]
  IC50: 2.07 µM (active)

## CC(=O)N1CCCCN2[C@H](CO)[C@H](c3ccc(-c4cccc(C)c4)cc3)[C@@H]2C1
[2]
  AC50: 9.64 µM (active)
[3]
  AC50: 19.2 µM (active)
[4]
  AC50: > 52 µM (inactive)

## Cc1cccc(-n2c(SCc3cc(=O)n4c(C)cccc4n3)nc3nncc-3c2O)c1
[5]
  IC50: > 50 µM (not active)

## Cc1ccc(C)c(-c2nc3cc(N)ccc3o2)c1
[6]
  IC50: 9.65 µM (active)
[7]
  IC50: 27.5 µM (active)
[8]
  IC50: > 50 µM (inactive)
[9]
  IC50: 25.2 µM (active)
[10]
  IC50: 31.1 µM (active)

## CCOC(=O)Cc1nn(C)c(=O)c2ccccc12
[5]
  IC50: > 50 µM (not active)

## O=C(CCc1ccccc1)Nc1ccc(N2CCOCC2)cc1
[5]
  IC50: > 50 µM (not active)

## O=C(O)COc1ccccc1/C=N/NC(=O)CSc1nnc(SCc2ccc(Cl)cc2)s1
[6]
  IC50: 15.8 µM (active)
[7]
  IC50: 41.1 µM (active)
[9]
  IC50: 22.5 µM (active)
[11]
  IC50: 16.6 µM (active)
[10]
  IC50: > 100 µM (inactive)

## Cc1ccc(CN2CCN(c3ncccn3)CC2)o1
[12]
  EC50: 4 µM (active)
[13]
  EC50: 92.4 µM (inactive)

## c1ccc(-c2cn3c([n+]2-c2ccccc2)CCC3)cc1
[1]
  IC50: 5.16 µM (active)

## CCOC(=O)N1CCN(Cc2ccc3c(c2)OCO3)CC1
[12]
  EC50: 1.19 µM (active)
[13]
  EC50: 92.4 µM (inactive)

## CC(C)n1c(-c2ccco2)cs/c1=N/c1cccnc1
[1]
  IC50: 10.5 µM (active)

## CC(C)(C)c1ccc(NC(=O)N2CCN(c3ccc([N+](=O)[O-])cn3)CC2)cc1
[14]
  CC50: 37.5 µM (active)

## O=[N+]([O-])c1cccnc1N1CCN(Cc2ccc3c(c2)OCO3)CC1
[12]
  EC50: 0.00977 µM (active)
[13]
  EC50: 92.5 µM (inactive)
